Data as given in article PMC6749073 (Frontiers in Pharmacology, 2019).

Columns and labels:
normal ICR mice = experiment: LD50 in normal ICR mice; format: in vivo; details: tail vein injection
Method: After injection, the animals’ condition was monitored every day for over 1 week by an observer who was blinded to the dose and drug allocation.
Estimates for ED50 and LD50 were calculated through nonlinear regression, data were fitted to a sigmoidal dose-response relationship in Prism (version 4.0a; GraphPad Software, Inc., San Diego, CA). The data were fitted to the equation:
Y=Ymin+Ymax−Ymin/1+10^(LogED50−X)∗HillSlope
where X is the logarithm of concentration, and Y is the response.

A549 = experiment: MTT cell viability assay, A549; format: cell-based, human; details: 48 h
Method: (§1) Cells were seeded at a density of 1 × 10^4 cells per well in 96-well plates. The following day, these cells were washed with PBS and exposed to different concentrations of testing compounds in culture medium for 48 h. MTT solution (10 μl at 5 mg/ml) was added to each well. After 4 h of incubation at 37°C, the medium was removed, and the insoluble precipitate was dissolved in 100 μl DMSO (Sigma, St. Louis, MO, USA). The absorbance of the dissolved solution at 490 nm was measured using a microplate reader (TECAN A-5082; Megllan, Austria). Cell viability percentages were calculated by dividing the mean optical density (OD) of compound-containing wells by that of the control wells. Each experiment was replicated three times. The IC50 of testing drugs was calculated with Statistical Product and Service Solutions software (SPSS, version 16.0).

H292 = experiment: MTT cell viability assay, H292; format: cell-based, human; details: 48 h
Method: as §1

HCC827 = experiment: MTT cell viability assay, HCC827; format: cell-based, human; details: 48 h
Method: as §1

H292 xenograft tumor = H292 xenograft tumor growth in nude mice; format: in vivo; details: 120 mg/kg, tail vein every 3 days
Method: (§3) Cells in logarithmic growth were washed with PBS and suspended in serum-free medium. Portions of the suspension (5 × 10^6 cells in 0.1 ml/mouse) were mixed at a 3:1 ratio with Matrigel basement membrane matrix and injected subcutaneously into the mice. Following 2 weeks of growth, tumor tissues were cut into multiple 2 × 2 × 2 mm^3 pieces and implanted using a range trocar subcutaneously (s.c. injection) into the left forepaw armpit of each mouse ([Jiang et al., 2017]). Treatment with pharmacology was started when the tumors reached an average volume of 100–200 mm^3. The mice were randomly divided into six groups (n = 14/group).
(§4) Body weight and tumor size were assessed every 3 days. Tumor size was measured using a caliper, the volumes were calculated according to the following standard formula: V = (L × W^2)/2 (V = tumor volume, L = largest diameter of tumor, W = smallest diameter of tumor). On day 25, all mice were sacrificed by cervical dislocation, and the tumors were removed and weighed.

LTEP-A-2 xenograft tumor = LTEP-A-2 xenograft tumor growth in nude mice; format: in vivo; details: comparable to DDP 6 mg/kg and CBP 60 mg/kg
rats = experiment: Renal pathology (H&E) in rats; format: in vivo; details: 7.5, 15, and 30 mg/kg twice a week for 4 weeks
Method: Total 30 rats were employed in the experiments, 20 rats were euthanized with isoflurane 3 days after the last administration, and the kidneys were excised and examined by the H&E staining, and the remaining 10 rats were handled after the recovery period (two weeks after the last administration). We found drug-related renal changes were appeared in the rats, especially in the high dose group (30 mg/kg). Of all the changes, the renal tubular epithelium denaturation/regeneration and tubular dilation are the most obvious, which are early appeared after 7.5 mg/kg treatment at both last administration and during recovery period.

[1] = Biodistribution of Pt by atomic absorption spectrometry in A549 xenograft nude mice; format: in vivo; details: 6 h after administration; diplatin 120 mg/kg vs CBP 70 mg/kg (equivalent Pt dose), i.v.
Method: At each time point of 10 min, 2 h, 6 h, and 24 h after administration, six mice were sacrificed. The tumors, organs/tissues, and blood were immediately collected. Then, Pt concentration was measured by atomic absorption spectrometry, counting the weight/volume of the tumors, tissues, organs, or blood.
At each time point of 10 min, 2 h, 6 h and 24 h after administration, 6 mice were sacrificed. The tumors, organ/tissue, and blood were immediately collected. Then, Pt concentration was measured by atomic absorption spectrometry, counting the weight/volume of the tumors, tissues or organs/blood.

A549 and H292 cells = experiment: EdU incorporation assay; format: cell-based, human; details: 48 h; diplatin 50 μM, DDP 5 μM, CBP 100 μM
Method: Cell proliferation was analyzed by measurement of DNA synthesis as identified by the EdU cell proliferation assay, which was applied in accordance with product manufacturer instructions. Cells (5 × 10^4 cells per well) were cultured in triplicate in 24-well plates and treated with testing compounds for 48 h. Then the cells were incubated with 50 μM EdU for an additional 2 h at 37°C. Cells were fixed with 4% formaldehyde for 30 min and were permeabilized with 0.5% Triton X-100 for 10 min at room temperature. After washing with PBS three times, cells were incubated for 30 min with 1× Apollo reaction cocktail. Finally, cells were stained with 10 μg/ml of Hoechst 33342 for 30 min and then imaged using a confocal laser scanning microscope (FV1000; Olympus, Japan). The percentage of EdU^+ cells was quantified using ImageJ software by dividing the mean OD of EdU^+ cells to the mean OD of Hoechst-labeled cells.

LTEP-A-2 cells = experiment: Cell cycle by PI flow cytometry, LTEP-A-2; format: cell-based, human; details: diplatin 50 µM, DDP 5 µM, CBP 100 µM
Method: (§2) Then, the cells were trypsinized, washed with PBS, and fixed in 1.5 ml 95% ethanol and left at 4°C overnight. They were then incubated with RNase and stained with propidium iodide (PI) (Multi Sciences Biotech Co., Ltd). PI absorbance was determined using a Cytomics FC500 Flow Cytometer (Beckman Coulter, USA).

H460 cells = experiment: Cell cycle by PI flow cytometry, H460; format: cell-based, human; details: diplatin 50 µM, DDP 5 µM, CBP 100 µM
Method: as §2

[2] = tested on: JNK, Erk1/2 and p38 phosphorylation in A549 and H292 cells; experiment: Western blot of MAPK phosphorylation (JNK, Erk1/2, p38); format: cell-based, human
Method: Cells were treated with diplatin, DDP, and CBP before being lysed. After centrifugation at 12,000 rpm for 10 min, an equal amount of protein from each group was subjected to electrophoresis on 10% SDS-PAGE gels. The proteins in the gel were then electroblotted onto polyvinylidene fluoride (PVDF) membranes (Millipore, Massachusetts, USA). After incubation in the blocking buffer (1× TBS, 0.1% Tween-20, and 5% w/v dry nonfat milk) for 1 h at room temperature, the membranes were incubated with the primary antibody at 4°C overnight. Next, membranes were rinsed with TBST, and then secondary antibodies were applied (LI-COR, USA) at room temperature for 1 h. Immunoreactive bands were visualized by a two-color infrared imaging system (Odyssey, LI-COR, USA).

A549/DDP xenograft tumor = details: diplatin 120 mg/kg vs DDP 6 mg/kg and CBP 60 mg/kg
Method: as §3, §4

Q: What does the source list for CCN(CC)CCCCC1C(=O)[O][Pt][O]C1=O.N[C@@H]1CCCC[C@H]1N.O=P(O)(O)O [Diplatin]?
A: Mice LD50 (normal ICR mice): 496 mg/kg; IC50 (A549): 102 µM; IC50 (H292): 30.9 µM; IC50 (HCC827): 25 µM; inhibition of H292 xenograft tumor growth (H292 xenograft tumor): 65.0%; effect on LTEP-A-2 xenograft tumor volume and weight (LTEP-A-2 xenograft tumor): significant inhibition on xenograft tumor volume and weight; renal pathology in rats (rats): nephrotoxicity; Pt accumulation in the kidneys, times higher than CBP [1]: 2.2 times; EdU incorporation (A549 and H292 cells): dramatically decreased; effect on cell cycle distribution (LTEP-A-2 cells): significant accumulation of cells in G2/M phase; effect on cell cycle distribution (H460 cells): failed to arrest the cells in the G2/M phase; concentration of apparent maximum JNK phosphorylation ([2]; 0.5 h exposure): 25 µM; Erk1/2 and p38 phosphorylation ([2]; diplatin 10, 25, 50 μM, DDP 5 μM, CBP 100 μM): failed to induce Erk1/2 and p38 phosphorylation; JNK phosphorylation levels ([2]; diplatin 10–50 μM, DDP 10 μM, 0.5 h): elevated; antitumor activity in A549/DDP xenograft tumor (A549/DDP xenograft tumor): more potent antitumor activities than DDP and CBP
